{"source": "patent US20250127787A1", "about": "“METHODS FOR TREATING PERIPHERAL NEUROPATHY” (University of Pittsburgh - Of the Commonwealth System of …, priority 2021, published 2025)", "key": {"inosine and guanosine": {"test_system": "inosine and guanosine", "assay": "Purine levels (inosine, guanosine) in CYP-CIPN rat epidermis (footpad)", "assay_type": "in vivo", "details": "8-AG 5 mg/kg/day in drinking water", "experimental": "Animals. This study employed female Harlan Sprague Dawley (HSD) rats (3-4 mo; Envigo, Indianapolis, IN) and were divided into the following groups: 1) Control, 2) Cyclophosphamide (CYP, 75 mg/kg i.p. in saline vehicle; administered on days 0, 3 and 6); 3) 8-aminoguanine (8-AG; 5 mg/kg/day in drinking water; beginning 2 weeks prior to CYP and continuing until sacrifice (day 8)). The dose of 8-AG is based on our preliminary and published experiments. […] The investigation conforms to the Guide for the Care and Use of Laboratory Animals published by the US National Institutes of Health (NIH Publication No. 85-23, revised 1996). In addition, all tissues (dorsal root ganglion, spinal cord, peripheral nerves and hindpaw epidermis) were removed from isoflurane anesthetized rats and the tissue was used for various experimental approaches as described below. At the end of tissue removal, animals were sacrificed by thoracotomy."}, "[1]": {"test_system": "superoxide dismutase (SOD1)", "assay": "SOD1 expression in rat epidermis after sciatic nerve injury, Western immunoblotting", "assay_type": "in vivo", "details": "8-AG 5 mg/kg/day in drinking water", "experimental": "Animals. This study employed female Harlan Sprague Dawley (HSD) rats (3-4 mo; Envigo, Indianapolis, IN) and were divided into the following groups: 1) Control, 2) Sciatic nerve crush (day 0, sacrifice on day 6); 3) 8-aminoguanine (8-AG; 5 mg/kg/day in drinking water; beginning 2 weeks prior to nerve crush and continuing until sacrifice (day 6)). The dose of 8-AG is based on the work above and published experiments. Further, the water consumption/day was tracked. […] All tissues (hindpaw epidermis) were removed from isoflurane anesthetized rats and the tissue was used for various experimental approaches as described below. At the end of tissue removal, animals were sacrificed by thoracotomy. […]"}}, "note": "Entries after “also recorded” stand apart in the source; their conditions may differ.", "data": [{"smiles": "Nc1nc2[nH]c(N)nc2c(=O)[nH]1", "note": "[8-AG, 8-Aminoguanine]", "values": [{"measurement": "effect on CYP-induced decrease in guanosine levels", "setting": "inosine and guanosine", "value": "normalizes; also recorded: completely restored"}, {"measurement": "effect on CYP-induced decrease in inosine levels", "setting": "inosine and guanosine", "value": "normalizes; also recorded: completely restored"}, {"measurement": "effect on sciatic nerve injury-induced decrease in SOD1 expression", "setting": "[1]", "value": "restored to control values; also recorded: normalized"}, {"measurement": "effect on sciatic nerve injury-induced decrease in SOD1 expression", "setting": "[1]; listed as 8-Aminoguanine", "value": "normalized"}]}]}
